Among the data in ChEMBL document CHEMBL4819031, “Sesquiterpenoids from the Aerial Parts of Salvia plebeia with Inhibitory Activities on Proprotein Convertase Subtilisin/Kexin Type 9 Expression” (J Nat Prod, 2021) are inhibition, Activity and IC50 values, retold here.

Experiment [1] concerns the target PCSK9/LDLR (Homo sapiens) (UniProt Q8NBP7+P01130). The experiment can be described thus: Inhibition of PCSK9 (unknown origin) interaction with LDLR (unknown origin) by ELISA. It counts as protein assay.
Experiment [2] has as its system HepG2. The experiment can be described thus: Down regulation of PCSK9 protein expression in human HepG2 cells at 10 to 50 uM incubated for 24 hrs by Western blotting analysis. Particulars: dose 10-50 µM. It counts as functional, cell-based. On the technique in general: In western blotting, separated proteins are transferred to a membrane and probed.
The subject of experiment [3] is HepG2. The experiment can be described thus: Up regulation of LDLR protein expression in human HepG2 cells at 10 to 50 uM incubated for 24 hrs by Western blotting analysis. Conditions: dose 10-50 µM. Format: functional, cell-based.
A short description of experiment [4]: Down regulation of PCSK9 mRNA expression in human HepG2 cells incubated for 24 hrs by SYBR green dye-based qRT-PCR analysis. Format: functional, cell-based. Particulars: HepG2, 24 h.
Experiment [5] relates to HepG2. The experiment can be described thus: Down regulation of PCSK9 mRNA expression in human HepG2 cells at 50 uM incubated for 24 hrs by SYBR green dye-based qRT-PCR analysis. It counts as functional, cell-based.

Calls of active or inactive are those of the source. The rule behind the calls is not given here.

PCSK9/LDLR (Homo sapiens), sequence (P01130 22-860 partner limits assumed): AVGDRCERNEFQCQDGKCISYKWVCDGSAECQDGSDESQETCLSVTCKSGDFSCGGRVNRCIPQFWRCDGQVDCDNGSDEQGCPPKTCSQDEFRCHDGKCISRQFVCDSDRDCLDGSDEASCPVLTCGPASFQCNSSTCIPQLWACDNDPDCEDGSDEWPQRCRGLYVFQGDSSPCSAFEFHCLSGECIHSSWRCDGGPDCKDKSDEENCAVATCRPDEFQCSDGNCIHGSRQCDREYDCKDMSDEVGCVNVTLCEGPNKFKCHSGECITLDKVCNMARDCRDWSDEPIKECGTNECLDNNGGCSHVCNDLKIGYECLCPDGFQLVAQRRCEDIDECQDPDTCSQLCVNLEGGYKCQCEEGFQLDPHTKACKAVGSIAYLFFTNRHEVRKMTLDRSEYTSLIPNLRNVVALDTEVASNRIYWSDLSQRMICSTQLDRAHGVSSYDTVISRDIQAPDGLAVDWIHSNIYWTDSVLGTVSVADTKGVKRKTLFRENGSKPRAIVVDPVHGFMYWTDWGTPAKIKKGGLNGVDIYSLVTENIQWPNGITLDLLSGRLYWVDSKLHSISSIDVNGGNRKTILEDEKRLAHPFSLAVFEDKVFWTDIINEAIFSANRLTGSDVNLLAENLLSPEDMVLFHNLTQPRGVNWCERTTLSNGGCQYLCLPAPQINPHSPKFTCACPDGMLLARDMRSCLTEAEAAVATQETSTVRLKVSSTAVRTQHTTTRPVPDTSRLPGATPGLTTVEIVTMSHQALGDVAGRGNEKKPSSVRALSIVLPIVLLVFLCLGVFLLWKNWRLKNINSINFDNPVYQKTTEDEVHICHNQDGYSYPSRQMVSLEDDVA
PCSK9/LDLR (Homo sapiens), sequence (Q8NBP7 31-152 limits assumed): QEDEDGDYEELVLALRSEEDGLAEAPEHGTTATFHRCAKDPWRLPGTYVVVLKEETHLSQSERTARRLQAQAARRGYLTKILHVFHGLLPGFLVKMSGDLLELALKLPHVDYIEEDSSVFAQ
PCSK9/LDLR (Homo sapiens), sequence (Q8NBP7 153-692 limits assumed): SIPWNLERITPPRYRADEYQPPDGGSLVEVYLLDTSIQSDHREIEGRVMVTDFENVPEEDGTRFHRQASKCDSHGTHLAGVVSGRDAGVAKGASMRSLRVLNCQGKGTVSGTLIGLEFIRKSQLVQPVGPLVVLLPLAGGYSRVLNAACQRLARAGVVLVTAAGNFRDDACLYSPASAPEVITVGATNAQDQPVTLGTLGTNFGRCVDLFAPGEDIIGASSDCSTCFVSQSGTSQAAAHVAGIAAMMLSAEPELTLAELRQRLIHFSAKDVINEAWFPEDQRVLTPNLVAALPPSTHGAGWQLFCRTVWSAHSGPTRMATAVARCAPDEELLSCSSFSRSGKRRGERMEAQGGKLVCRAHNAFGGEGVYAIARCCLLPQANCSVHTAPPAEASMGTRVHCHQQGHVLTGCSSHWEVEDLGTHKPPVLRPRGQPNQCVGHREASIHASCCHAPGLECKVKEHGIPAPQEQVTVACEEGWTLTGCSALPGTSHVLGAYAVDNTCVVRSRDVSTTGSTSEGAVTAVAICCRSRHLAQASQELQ

As for `CC(=O)O[C@H]1C[C@@H](O)[C@@]2(C)C[C@@]3(O)OC(=O)C(C)=C3C[C@@H]2[C@H]1C`, in experiment [1], the inhibition entry was “inactive”.
Take `CC(=O)O[C@@H]1C(=O)C=C(C)[C@@H]2CC3=C(C)C(=O)O[C@@H]3C[C@@]12C`: in experiment [1], the inhibition result was “inactive”.
Still for that read-out and setting: in the case of `COc1c(O)cc2c(c1O)C(=O)C[C@@H](c1ccc(O)cc1)O2` it was “inactive”.
As for `COC(=O)[C@H](C)[C@H]1C[C@]2(O)C(C)=CC(=O)[C@H](OC(C)=O)[C@]2(C)CC1=O`, the inhibition entry in experiment [1] is “inactive”.
What is called IC50 is the point on the concentration scale where inhibition reaches its midpoint. A low value points to inhibition by little substance. As for `CO[C@@H]1CC(=O)[C@H](C)[C@H]2C/C(=C(\C)C(=O)O)C[C@@]21C`, the inhibition result in experiment [1] was “inactive”. Besides, the result with HepG2 [2], with HepG2 [3] and in the experiment on HepG2 [5] was Active. The compound further gave an IC50 in experiment [4] of 24.4 µM.
Regarding `CC1=C2C[C@@H]3[C@@H](C)C(=O)C=C[C@@]3(C)C[C@@]2(O)OC1=O`, in experiment [1], the inhibition entry was “inactive”. The result in the experiment with HepG2 [2], with HepG2 [3] and in the experiment with HepG2 [5] was Active. The IC50 in experiment [4] came out at 27.8 µM.
As for `CC(=O)O[C@H]1C(=O)C=C(C)[C@H]2CC3=C(C)C(=O)O[C@]3(O)C[C@@]21C`, the inhibition result in experiment [1] is “inactive”.
Same read-out and setting: in the case of `CC(=O)O[C@H]1C(=O)C=C(C)[C@H]2CC3=C(C)C(=O)OC3=C[C@@]21C` it was “inactive”; in that of `CC(=O)O[C@H]1C[C@@H](O)[C@@]2(C)C[C@H](O)/C(=C(/C)C(=O)O)C[C@@H]2[C@H]1C`, “inactive”; in that of `CC(=O)O[C@@H]1C(=O)C=C(C)[C@]2(O)C/C(=C(\C)C(=O)O)C(O)=C[C@]12C`, “inactive”.
On the same count and under the same terms, for `CO[C@@]12C[C@]3(C)[C@H](O)C[C@H](OC(C)=O)[C@H](C)[C@H]3CC1=C(C)C(=O)O2` the value was “inactive”.
For `CO[C@]12C[C@@]3(C)[C@H](OC(C)=O)C(=O)C=C(C)[C@@H]3CC1=C(C)C(=O)O2`, the inhibition result in experiment [1] was “inactive”. Moreover, the IC50 in experiment [4] was determined as 25.2 µM. Moreover, the outcome with HepG2 [5] was Active.
`CC(=O)O[C@H]1C[C@H](O)[C@]2(C)C[C@@H]3OC(=O)C(C)=C3C[C@H]2[C@@H]1C`: the inhibition entry in experiment [1] is “inactive”.
Regarding `COc1ccc2cc3[n+](cc2c1OC)CCc1cc2c(cc1-3)OCO2` [BERBERINE CHLORIDE], the half-maximal inhibitory concentration (IC50) in experiment [4] worked out at 13.8 µM.
On to `CO[C@]12C[C@@]3(C)[C@H](CC1=C(C)C(=O)O2)C(C)=CC(=O)[C@@H]3OC(C)=O`, for which the inhibition result in experiment [1] is “inactive”.
On the same count and under the same terms, in the case of `CC(=O)O[C@H]1C[C@@H](O)[C@@]2(C)C=C3OC(=O)C(C)=C3C[C@@H]2[C@H]1C` it was “inactive”; in that of `CC1=C2C[C@@H]3[C@@H](C)[C@@H](O)C[C@@H](O)[C@@]3(C)C=C2OC1=O`, “inactive”; in that of `CC1=CC(=O)[C@H](O)[C@@]2(C)C=C3OC(=O)C(C)=C3C[C@H]12`, “inactive”.
`CC(=O)O[C@H]1C(=O)C=C(C)[C@H]2CC3=C(C)C(=O)O[C@@H]3C[C@@]21C`: the inhibition result in experiment [1] was “inactive”.
In the case of `COc1c(O)cc2oc(-c3ccc(O)cc3)cc(=O)c2c1O`, the inhibition result in experiment [1] is “inactive”.
